Laboratory results taken from patent publication US7781394B2 (Institut Pasteur, priority 2006, dated 2010).
Like-named read-outs stand apart in the source and are kept apart here. Values belong to the compound of their own block, whether it stands above or below them.

How the values were obtained:
Type in all cases: biochemical
RCL [1] = target: T1, RCL (Rattus norvegicus, UniProt O35820); assay: Compounds tested as substrate or inhibitor of RCL enzyme activity (dGMP hydrolysis); settings: for Ki: competitive for dGMP, double reciprocal plot; for substrate or inhibitor of the enzyme activity: versus dGMP as substrate
T1 construct: made in house; host or cells: E. coli Bli5 (BL21 (DE3) pDIA17); pET24dRcl (untagged) or pET28aRcl (His-tagged)
T1 sequence (O35820 1-163): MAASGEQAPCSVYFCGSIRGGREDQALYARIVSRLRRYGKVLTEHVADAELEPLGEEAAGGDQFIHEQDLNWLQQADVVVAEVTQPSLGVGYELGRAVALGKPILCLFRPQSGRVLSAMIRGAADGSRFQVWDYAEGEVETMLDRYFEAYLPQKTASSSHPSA
Description: The enzyme activity was determined either spectrophotometrically by following one of the reaction products, […] or deoxyribose 5-phosphate, or by HPLC separation and UV detection of the released nucleobase and the remaining substrate.
The initial velocity of the reaction was measured either at variable concentration of dGMP both in the absence and presence of inhibitors, or at fixed concentration of dGMP and variable concentrations of inhibitors allowing the testing of the nature of the inhibition.

[2] = target: T2, His-RCL (deoxynucleoside 5′-monophosphate N-glycosidase) (Rattus norvegicus, UniProt O35820); assay: Kinetic parameters of His-RCL (wild-type) with dNMP substrates, initial velocity measurements
T2 construct: made in house; host or cells: E. coli Bli5 (BL21 (DE3) pDIA17), plasmid pET28aRcl
T2 sequence (O35820 1-163): T1 sequence (O35820 1-163)

RCL [3] = target: T1, RCL; assay: pH dependence of RCL activity at saturating substrate; settings: for % of the maximal activity: pH 7.0; for % of the enzyme activity remained: pH 8.0; for pH optimum: saturating concentrations of substrate
Description: Catalytic properties of the recombinant proteins. […] 50% of the maximal activity was still observed at pH 7.0 in the case of dCMP while it was only 20% in the case of dGMP. In both cases at pH 8.0, only 10% of the enzyme activity remained. Several metals were tested for their ability to stimulate or inhibit the reaction: Ca^2+, Mg^2+, Zn^2+, Na^+, and K^+.

[4] = Table 3, additional substrates of His-RCL, in 1/s
[5] = Table 3, additional substrates of His-RCL, read-out: Km
[6] = Table 1, substrate of His-RCL, five concentrations
[7] = purine deoxynucleotides, read-out: Km of RCL
[8] = pyrimidine deoxynucleotides, read-out: Km of RCL

Structure (SMILES): CSc1nc(N)nc2c1ncn2[C@@H]1O[C@H](COP(=O)(O)O)[C@@H](O)[C@H]1O
Ki (RCL [1]): 10 µM
substrate or inhibitor of the enzyme activity (RCL [1]): competitive inhibitors

Structure (SMILES): Nc1nc2c(ncn2[C@H]2C[C@H](OP(=O)(O)O)[C@@H](CO)O2)c(=O)[nH]1 [2′-deoxyguanosine 3′-monophosphate]
substrate or inhibitor of the enzyme activity (RCL [1]): neither a substrate nor an inhibitor

Structure (SMILES): COc1nc(N)nc2c1ncn2[C@H]1C[C@H](O)[C@@H](COP(=O)(O)O)O1 [06-methyl-dGMP]
kcat [2, 4]: 0.033
Km [2, 5]: 61 ± 16 µM

Structure (SMILES): NC1=NC(=O)C2=NC(=O)N([C@H]3C[C@H](O)[C@@H](COP(=O)(O)O)O3)C2=N1 [8-oxo-dGMP, 8-oxo-deoxyguanosine 5′-monophosphate]
substrate or inhibitor of the enzyme activity (RCL [1]): neither a substrate nor an inhibitor

Structure (SMILES): Nc1nc2c(ncn2[C@@H]2O[C@H](COP(=O)(O)O)[C@@H](O)[C@H]2O)c(=O)[nH]1 [GMP]
Ki (RCL [1]): 20 µM
substrate or inhibitor of the enzyme activity (RCL [1]): competitive inhibitors

Structure (SMILES): Nc1nc2c(ncn2[C@H]2C[C@H](O)[C@@H](COP(=O)(O)O)O2)c(=O)[nH]1 [dGMP]
Vmax [2]: 0.09 U. mg^−1
kcat [2, 6]: 0.0297 s⁻¹
kcat ([2]; Table 2, Wt His-RCL, dGMP 250 μM to 20 mM): 0.0298 s⁻¹
kcat [2, 4]: 0.033
Km [2, 5]: 77 ± 20 µM
kcat ([2]; corresponds to Vmax): 0.0268 s⁻¹
times more efficiently cleaved than dAMP ([2]; kcat/Km comparison): 20 times
times more efficiently cleaved than dIMP ([2]; kcat/Km comparison): 40 times
Km [2, 7]: 50 µM
% of the maximal activity (RCL [3]): 20%
% of the enzyme activity remained (RCL [3]): 10%
pH optimum (RCL [3]): ~6.0 pH

Further lines, results first:

kcat [2, 4]: 0.0528
Km [2, 5]: 71 ± 8 µM
Structure (SMILES): CCNc1nc2c(ncn2[C@H]2C[C@H](O)[C@@H](COP(=O)(O)O)O2)c(=O)[nH]1 [N2-ethyl-dGMP]

kcat [2, 4]: 2.376
Km [2, 5]: 470 ± 68 µM
Structure (SMILES): C[n+]1cn([C@H]2C[C@H](O)[C@@H](COP(=O)(O)O)O2)c2nc(N)[nH]c(=O)c21 [N7-methyl-dGMP]

kcat [2, 6]: 0.0066 s⁻¹
Km [2, 7]: 250 µM
Structure (SMILES): Nc1ncnc2c1ncn2[C@H]1C[C@H](O)[C@@H](COP(=O)(O)O)O1 [dAMP]

kcat [2, 6]: 0.0231 s⁻¹
Km [2, 8]: 4000 µM
% of the maximal activity (RCL [3]): 50%
% of the enzyme activity remained (RCL [3]): 10%
pH optimum (RCL [3]): ~6.0 pH
Structure (SMILES): Nc1ccn([C@H]2C[C@H](O)[C@@H](COP(=O)(O)O)O2)c(=O)n1 [dCMP]

Km [2, 8]: > 50000 µM
Structure (SMILES): Cc1cn([C@H]2C[C@H](O)[C@@H](COP(=O)(O)O)O2)c(=O)[nH]c1=O [dTMP]

kcat [2, 6]: 0.158 s⁻¹
Km [2, 8]: 15000 µM
Structure (SMILES): O=c1ccn([C@H]2C[C@H](O)[C@@H](COP(=O)(O)O)O2)c(=O)[nH]1 [dUMP]
